Experiments:
human Fpn = biological target: T1, human Fpn (Homo sapiens, UniProt Q9NP59); assay: Biophysical Ferroportin-Hepcidin Binding Assay (fluorescence polarization); conditions: average (AVE) of multiple measurements; TMR-hepcidin binding to purified human Fpn; read-out: FP IC50
T1 construct: FLAG (C); made in house; host or cells: Pichia pastoris
T1 sequence (Q9NP59 1-571): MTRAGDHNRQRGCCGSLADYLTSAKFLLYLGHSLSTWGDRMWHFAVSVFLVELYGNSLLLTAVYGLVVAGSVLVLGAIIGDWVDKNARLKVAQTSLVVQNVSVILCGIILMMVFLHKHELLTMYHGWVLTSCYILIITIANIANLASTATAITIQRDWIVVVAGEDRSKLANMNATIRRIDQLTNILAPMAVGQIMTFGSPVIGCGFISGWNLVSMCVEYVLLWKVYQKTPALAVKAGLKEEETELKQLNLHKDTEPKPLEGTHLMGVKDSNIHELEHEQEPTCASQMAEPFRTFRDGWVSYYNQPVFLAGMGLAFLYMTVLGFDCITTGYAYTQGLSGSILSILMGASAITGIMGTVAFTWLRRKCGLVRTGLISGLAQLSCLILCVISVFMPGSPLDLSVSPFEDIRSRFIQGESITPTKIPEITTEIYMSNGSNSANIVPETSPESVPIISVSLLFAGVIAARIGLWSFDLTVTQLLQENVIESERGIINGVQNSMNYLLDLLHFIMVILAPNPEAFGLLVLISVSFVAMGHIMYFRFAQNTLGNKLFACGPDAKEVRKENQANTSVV
Method: This biophysical assay was developed to confirm inhibition of hepcidin binding to ferroportin (Fpn) more directly. Incubation of TMR-hepcidin with purified human Fpn isolated from Pichia pastoris yeast cells expressing human Fpn with a C-terminal FLAG affinity tag (Bonaccorsi di Patti, 2014) leads to increased fluorescence polarization (FP) of the TMR-hepcidin ligand. Small molecular weight Fpn inhibitors were tested for inhibition of binding of TMR-hepcidin to Fpn, as detected by dose-dependent decrease of the TMR FP signal, as described in detail below.
A mixture of […] human Fpn and 30 nM TMR-hepcidin in FP assay buffer containing 50 mM Tris-HCl pH 7.3, 200 mM NaCl, 0.02% DDM, 0.1% BSA was plated into a 384 well black low volume round bottom plate (Corning, Cat. 3677) at 16 μl per well. 8 μl of serial dilutions of test compounds were added in duplicates to reach final Fpn and TMR-hepcidin concentrations of […] and 20 nM, respectively. Plates were incubated for 90 minutes at room temperature and parallel (S) and perpendicular (P) fluorescence was measured in a Synergy H1 fluorescence reader (BioTek). FP values were calculated in mP according to the following formula.

[1] = biological target: T2, human Fpn-GFP fusion construct (Homo sapiens, UniProt Q9NP59); assay: Inhibition of ferroportin mediated iron export activity in an iron response assay (BLAzer); assay type: cell-based; conditions: average (AVE) of multiple measurements; HEK-293 cell line #354
T2 construct: expressed in transfected cells; host or cells: HEK-293 cell line #354 (derivative of HEK-293 Tet-ON Advanced, Clontech)
T2 sequence (Q9NP59 1-571): T1 sequence (Q9NP59 1-571)
Source text: Intracellular iron levels are indirectly measured in this assay by monitoring the activity of a beta-lactamase (BLA) reporter gene fused to the human ferritin promoter and the associated iron regulatory element (IRE) contained within the 5′ untranslated region of the ferritin mRNA. Expression of ferroportin (Fpn) in such a cell line leads to iron efflux and lower iron levels as reflected by lower activity of the reporter gene. On the other hand, inhibition of Fpn-mediated iron efflux results in elevated cellular iron levels which is detected as increased reporter gene activity. Small molecular weight Fpn inhibitor compounds were tested for dose-dependent effects in this in vitro iron response assay as described below.
The HEK-293 cell line #354 was generated by stable integration of (i) a human Fpn-GFP fusion construct inserted in a derivative of the doxycycline-inducible pTRE-Tight-BI plasmid (Clontech, Cat. 631068) and (ii) a human ferritin promoter-BLA reporter gene into a derivative of the HEK-293 Tet-ON Advanced cell line (Clontech). […] After overnight incubation, 10 μl/well of dilution series of the test compounds were added in quadruplicates and plates were further incubated overnight at 37° C. with 5% CO2. Cells were washed 3 times with HBSS leaving 25 μl per well. BLA activity was detected by adding 5 μl/well of the GeneBlazer reagent CCF4-AM (Invitrogen, Cat. K1085) to the cells. After incubation of the plates in the dark at 18° C. for 60 min., blue and green fluorescence signals were measured in a Safire2 fluorescence plate reader (Tecan) with excitation at 410 nm and emissions at 458 nm (blue) and 522 nm (green). The ratio of blue/green fluorescence as a measure for BLA activity was calculated and EC50 values were determined with the calculated blue/green fluorescence ratios as described for the hepcidin internalization assay.

Hbb th3/+ mice = assay: Improvement of anemia, ineffective erythropoiesis and iron overload in a mouse model of β-thalassemia intermedia; assay type: in vivo; conditions: hemoglobin difference to vehicle
naïve WT C57BL/6 mice = assay: Hypoferremia in naïve mice; assay type: in vivo, mouse; conditions: Mus musculus, po, 3 h, read-out: Serum Iron Reduction at 3 h (%)
Method: Female C57BL/6 mice (Janvier, France) at age of 9 weeks were fed a standard diet (Harlan Provimi Kliba 3436) and treated per os (p.o.) with compounds or the corresponding amount of vehicle at a volume of 10 ml/kg body weight. Fpn inhibitors were formulated in 0.5% methylcellulose/water or 20% cremophor EL/water and dosed p.o. in mice at 10, 30 or 100 mg/kg body weight. Three hours later, mice were pre-terminally anesthetized in isoflurane chambers and blood was collected by retro-orbital bleeding. Mice were sacrificed by cervical dislocation and spleens, livers and duodena were harvested and used for biomarker analysis. All experiments have been conducted in compliance with the license approved by the responsible veterinarian authorities. Serum was isolated by centrifugation of blood into gel-containing microtainers and serum iron was determined by the MULTIGENT Iron assay (Abbott Diagnostics, 6K95). Eight mice per group were used and one-way ANOVA with Bonferroni's multiple comparison test was performed to analyze the statistical differences between the experimental groups.
Relative serum iron reduction at 3 h after dosing was calculated by subtracting the average of serum iron values of animals dosed with the Fpn inhibitor from that of vehicle-treated animals. The difference in average serum iron values between vehicle and compound treated groups was then divided by the average of serum iron of the vehicle control group and listed as percentage.

| SMILES | IC50 (human Fpn) [nM] | EC50 [1] [nM] | Correction of anemia at day 20-48 (Hbb th3/+ mice; 20 mg/kg twice daily) [g/L] | Correction of anemia at day 20-48 (Hbb th3/+ mice; 60 mg/kg twice daily) [g/L] | inhibition in vivo at 10 mg/kg (naïve WT C57BL/6 mice) [%] | inhibition in vivo at 30 mg/kg (naïve WT C57BL/6 mice) [%] | inhibition in vivo at 100 mg/kg (naïve WT C57BL/6 mice) [%] |
| --- | --- | --- | --- | --- | --- | --- | --- |
| O=C(NCc1ncccc1F)c1cnc(CCNCCc2nc3ccccc3[nH]2)o1 [Example 1] | 16 | 930 |  |  |  |  |  |
| O=C(NCc1ncccc1F)c1cnc(C2CN(CCc3nc4ccccc4[nH]3)C2)o1 [Example 2] | 17 | 1030 | 3 | 11 |  |  |  |
| O=C(NCc1ncccc1F)c1csc(CCNCc2nc3ccccc3[nH]2)n1 [Example 40] | 68 | 1450 |  |  |  |  |  |
| O=C(NCc1ncccc1F)c1cnn(CCNCCc2cc3ccccc3[nH]2)c1 [Example 277] |  | 170 |  |  | 6 | 21 | 54 |

Reference: patent publication US11066399B2, “Ferroportin inhibitors” (Vifor (International) AG, priority 2015, dated 2021)
